{
  "source": "patent US8580857B2",
  "about": "(priority 2001, dated 2013)",
  "key": {"[1]": {"system": "human prostate PC3 xenograft tumors", "assay": "Antitumor activity in subcutaneous human prostate PC3 xenograft (tumor size over time)", "assay_type": "in vivo, immunodeficient mice", "procedure": "The dose of paclitaxel was 15 mg/kg and was given twice weekly for three weeks. […] Example 1 further expounds on FIG. 1.\nThe relevant tumor model used was human prostate PC3 xenograft implanted subcutaneously in immunodeficient mice. […] The dose of paclitaxel was 15 mg/kg and was given twice weekly for three weeks."}, "[2]": {"system": "human prostate PC3 xenograft tumors", "assay": "Non-apoptotic and apoptotic cell counts in histologic sections of residual PC3 tumors", "assay_type": "in vivo, immunodeficient mice", "details": "mean ± SD", "procedure": "Because a post-treatment residual tumor consisted of apoptotic and non-apoptotic cells, the effects of different treatments on the fractions of non-apoptotic (and therefore not committed to death) and apoptotic (dead or committed) cells were evaluated. Briefly, residual tumors were removed from animals after termination of treatment, and histologic tumor sections were prepared. Tumor sections were examined microscopically under 400× magnification. For each tumor, at least 4 sections were evaluated. Apoptotic cells were identified by their characteristic morphologies, i.e., presence of apoptotic bodies, condensed nuclei and fragmented nuclei."}, "clinical": {"assay": "clinical", "assay_type": "in vivo, human", "from_the_text": "This method was then verified prospectively in three additional patients (see Example IV).\nHowever, the CL was lower in females compared to males."}, "in vivo": {"assay": "in vivo", "details": "mouse"}, "[3]": {"assay": "Phase I trial, toxicity of low dose suramin with paclitaxel and carboplatin", "assay_type": "in vivo, human", "from_the_text": "Fifteen patients, with metastases to pleura, pericardium, adrenals, lymph nodes, liver, bone, and/or brain, were enrolled in the phase I trial. This group includes 4 stage IIIb and 11 stage IV patients. […] All patients were evaluable for pharmacokinetics and toxicity. […] Accordingly, it was not necessary to administer replacement steroid therapy to patients who received low dose suramin. This is contrary to the case where replacement steroid therapy was routinely given to patients who received high dose suramin (Dorr and Von Hoff)."}, "[4]": {"assay": "Prospective verification of the PBPK-based dosing method, plasma concentrations", "assay_type": "in vivo, human", "details": "for concentration at 48 h: human, plasma, intravenous", "procedure": "Three additional non-small cell lung cancer patients were treated using the dose calculated by the PBPK-based method."}, "[5]": {"details": "Literature, cited from earlier work"}, "cell cycle": {"system": "cell cycle", "details": "constant concentrations of above 50 μM maintained for at least one or two days; cited from earlier work"}, "[6]": {"system": "acidic and basic fibroblast growth factors (aFGF and bFGF)", "details": "tumor cells, aFGF and bFGF induced resistance; cited from earlier work"}, "[7]": {"assay": "Population-based pharmacokinetic (PBPK) analysis of low dose suramin, NONMEM", "excerpt": "The first step is to define the appropriate error model for the pharmacokinetic parameters of interest. […] Only the covariates whose elimination results in significant deterioration in model performance are included in the final model (referred to as Population Model).\nThe PBPK for a one-compartment model depicting plasma concentrations as a function of clearance (CL) and volume of distribution (V) is as follows: • where Cij is the predicted plasma concentration at a particular time time i for a patient j.\nError functions were used to describe the random deviations between model-predicted and observed data for individual pharmacokinetic parameters. Because the objective was to identify the dose, which can be calculated based on CL and V, the analysis focused on these two parameters. […] CLj=CL^typ*(1+ηCL) Eq. 2 Vj=V^typ*(1+ηV) Eq. 3 where ηCL and ηV are random values normally distributed around a mean of zero with a variance of ω^2.\nMultiple plasma concentration-time data points were used in PBPK analysis. These time points were 18, 24, 48 and 72 hours after the first treatment, 72 hours and immediately prior to next treatment, and 48 and 72 hours after second and subsequent treatments. The relationship between observed plasma concentrations and PBPK-predicted values (residual variability) is depicted by Equation 4. Yij=Cij*(1+ε1ij) Eq. 4 where Yij and Cij are the observed and predicted concentrations of the j^th individual at the i^th sampling time. ε1ij is the residual errors with a mean of zero and a variance of σ^2. The above equations used an error function in the form of (1+error), which represents the proportional error model where the coefficient of variation is constant and independent of the size of the fixed effect parameter. […] Model Building: Identification of Significant Covariates\nThe contribution of ten covariates to the inter-individual variability in CL and V was studied. These covariates were age, gender, weight, ideal body weight, height, body surface area (BSA), creatinine concentration, creatinine clearance (CrCL), and serum albumin concentration. Linear regression analysis was used to examine the relationships between covariates and pharmacokinetic parameters in individual patients.\nTo determine whether a covariate should be incorporated into the model, the log likelihood ratio test was used and the chi-square χ^2 values were calculated by taking the difference in the objective function values of the models, obtained with or without adding the candidate covariate.\nCL^typ=(θ1*BSA+θ2*CrCL+θ3)*(1−θ4) Eq. 7 V^typ=θ5*BSA^2+θ6 Eq. 8 […]\nTo obtain estimates for k^typ, the k values for individual patients were calculated by substituting their corresponding BSA values into Equations 13 and 14."}, "[8]": {"details": "paclitaxel alone 15 mg/kg twice weekly for three weeks"}, "[9]": {"details": "high dose suramin regimen 200 mg/kg then 5 x 130 mg/kg over three weeks, combination: plus paclitaxel 15 mg/kg"}, "[10]": {"details": "low dose suramin regimen 10 mg/kg twice weekly for three weeks, combination: plus paclitaxel 15 mg/kg"}, "[11]": {"details": "Patient 1, cycle 1, BSA 1.45, dose 263 mg"}, "[12]": {"details": "Patient 1, cycles 3 to 6, dose 151-156 mg"}, "[13]": {"details": "Patient 2, cycle 1, BSA 1.67, dose 210 mg"}, "[14]": {"details": "Patient 2, cycles 2 to 6, dose 227-257 mg"}, "[15]": {"details": "Patient 3, cycle 1, BSA 1.83, dose 230 mg"}, "[16]": {"details": "high dose suramin >2,000 mg per m^2"}, "[17]": {"details": "Population Model, first 12 patients"}},
  "note": "Marks after values point to notes of the source that are not given here.",
  "data": [
    {"smiles": "CC(=O)O[C@H]1C(=O)[C@@]2(C)[C@H]([C@H](OC(=O)c3ccccc3)[C@]3(O)C[C@H](OC(=O)[C@H](O)[C@@H](NC(=O)c4ccccc4)c4ccccc4)C(C)=C1C3(C)C)[C@]1(OC(C)=O)CO[C@@H]1C[C@@H]2O", "note": "[Paclitaxel, paclitaxel]", "values": [
      {"measurement": "antitumor effect (tumor growth)", "setting": "[1]; paclitaxel alone 15 mg/kg twice weekly for three weeks, p<0.05 vs control", "value": "suppressed tumor growth"},
      {"measurement": "Number of apoptotic cells in a 400x field", "setting": "[2]; [8]", "value": "30 ± 17"},
      {"measurement": "Number of non-apoptotic cells in a 400x field", "setting": "[2]; [8]", "value": "14 ± 10"},
      {"measurement": "areas-under-plasma concentration-time curves attained in the first 48 hours after drug administration", "setting": "clinical; human, in vivo", "value": "> 92", "unit": "%"},
      {"measurement": "concentration at 5 min", "setting": "in vivo", "value": "~7000", "unit": "ng/mL"},
      {"measurement": "concentration at 5 h", "setting": "in vivo", "value": 200, "unit": "ng/mL"},
      {"measurement": "concentration at 6 h", "setting": "in vivo", "value": "< 100", "unit": "ng/mL"}
    ]},
    {"smiles": "N.N.O=C([O-])C1(C(=O)[O-])CCC1.[Pt+2]", "note": "[carboplatin]", "values": [
      {"measurement": "areas-under-plasma concentration-time curves attained in the first 48 hours after drug administration", "setting": "clinical; first six patients", "value": "> 99", "unit": "%"}
    ]},
    {"smiles": "Cc1ccc(C(=O)Nc2ccc(S(=O)(=O)O)c3cc(S(=O)(=O)O)cc(S(=O)(=O)O)c23)cc1NC(=O)c1cccc(NC(=O)Nc2cccc(C(=O)Nc3cc(C(=O)Nc4ccc(S(=O)(=O)O)c5cc(S(=O)(=O)O)cc(S(=O)(=O)O)c45)ccc3C)c2)c1", "note": "[suramin]", "values": [
      {"measurement": "antitumor effect (tumor growth)", "setting": "[1]; high dose suramin regimen: loading dose 200 mg/kg, then 5 doses of 130 mg/kg over three weeks, combination: plus paclitaxel 15 mg/kg twice weekly for three weeks", "value": "slower tumor growth"},
      {"measurement": "tumor size, % of the initial tumor size", "setting": "[1]; low dose suramin regimen: 10 mg/kg twice weekly for three weeks, combination: plus paclitaxel 15 mg/kg twice weekly for three weeks", "value": "about 800%"},
      {"measurement": "Number of apoptotic cells in a 400x field", "setting": "[2]; [9]", "value": "22 ± 9"},
      {"measurement": "Number of non-apoptotic cells in a 400x field", "setting": "[2]; [9]", "value": "19 ± 9"},
      {"measurement": "Number of apoptotic cells in a 400x field", "setting": "[2]; [10]", "value": "21 ± 16"},
      {"measurement": "Number of non-apoptotic cells in a 400x field", "setting": "[2]; [10]", "value": "62 ± 44"},
      {"measurement": "dose-limiting toxicity", "setting": "[3]; low dose suramin with paclitaxel 200 mg/m^2 and carboplatin AUC 6 every three weeks, fifteen patients", "value": "No dose-limiting toxicity"},
      {"measurement": "adrenal insufficiency", "setting": "[3]; patients receiving the low dose suramin treatment", "value": "no adrenal insufficiency"},
      {"measurement": "half-life", "setting": "clinical; both sexes, human, in vivo, Alpha half-life", "value": 4.4, "unit": "h"},
      {"measurement": "half-life", "setting": "clinical; both sexes, human, in vivo, Beta half-life", "value": 264, "unit": "h"},
      {"measurement": "maximum inter-individual variability of clearance (CL)", "setting": "clinical; both, human, in vivo", "value": 182, "unit": "%"},
      {"measurement": "inter-individual variability of clearance (CL)", "setting": "clinical; female, human, in vivo", "value": 2, "unit": "%"},
      {"measurement": "half-life", "setting": "clinical; female, human, in vivo, Alpha half-life", "value": "4.6 ± 2", "unit": "h"},
      {"measurement": "half-life", "setting": "clinical; female, human, in vivo, Beta half-life", "value": 336, "unit": "h"},
      {"measurement": "area under the terminal phase as share of the total area-under-curve", "setting": "clinical; human, in vivo", "value": "~90", "unit": "%"},
      {"measurement": "concentration at 48 h", "setting": "clinical; human, in vivo", "value": "> 10", "unit": "µM"},
      {"measurement": "maximum inter-subject variability in the steady state volume of distribution (Vss)", "setting": "clinical; human, in vivo", "value": 153, "unit": "%"},
      {"measurement": "inter-individual variability of clearance (CL)", "setting": "clinical; male, human, in vivo", "value": 13, "unit": "%"},
      {"measurement": "half-life", "setting": "clinical; male, human, in vivo, Alpha half-life", "value": "4.3 ± 0.6", "unit": "h"},
      {"measurement": "half-life", "setting": "clinical; male, human, in vivo, Beta half-life", "value": 240, "unit": "h"},
      {"measurement": "Concentration, Post-paclitaxel", "setting": "[4]; [11]", "value": 33.95, "unit": "µM"},
      {"measurement": "Concentration, Pre-dose", "setting": "[4]; [11]", "value": 0.00, "unit": "µM"},
      {"measurement": "Concentration, Post-paclitaxel", "setting": "[4]; [12]", "value": "21.5 to 26.3", "unit": "µM"},
      {"measurement": "Concentration, Pre-dose", "setting": "[4]; [12]", "value": "1.87 to 3.19", "unit": "µM"},
      {"measurement": "Concentration, Post-paclitaxel", "setting": "[4]; [13]", "value": 40.39, "unit": "µM"},
      {"measurement": "Concentration, Pre-dose", "setting": "[4]; [13]", "value": 0.00, "unit": "µM"},
      {"measurement": "Concentration, Post-paclitaxel", "setting": "[4]; [14]", "value": "26.7 to 28.5", "unit": "µM"},
      {"measurement": "Concentration, Pre-dose", "setting": "[4]; [14]", "value": "2.65 to 3.81", "unit": "µM"},
      {"measurement": "Concentration, Post-paclitaxel", "setting": "[4]; [15]", "value": 36.02, "unit": "µM"},
      {"measurement": "Concentration, Pre-dose", "setting": "[4]; [15]", "value": 0.00, "unit": "µM"},
      {"measurement": "maximum concentrations after administration of paclitaxel", "setting": "[4]; all 13 treatments in three patients, PBPK-calculated dose, two-thirds / one-third split", "value": "below 50 μM"},
      {"measurement": "concentration at 48 h", "setting": "[4]; Patient 1, cycle 1, BSA 1.45, dose 263 mg, read-out: Concentration, 48 hours", "value": 13.9, "unit": "µM"},
      {"measurement": "concentration at 48 h", "setting": "[4]; Patient 1, cycles 3 to 6, dose 151-156 mg, read-out: Concentration, 48 hours", "value": "10.2 to 11.5", "unit": "µM"},
      {"measurement": "concentration at 48 h", "setting": "[4]; Patient 2, cycle 1, BSA 1.67, dose 210 mg, read-out: Concentration, 48 hours", "value": 15.5, "unit": "µM"},
      {"measurement": "concentration at 48 h", "setting": "[4]; Patient 2, cycles 2 to 6, dose 227-257 mg, read-out: Concentration, 48 hours", "value": "12.9 to 15.6", "unit": "µM"},
      {"measurement": "concentration at 48 h", "setting": "[4]; Patient 3, cycle 1, BSA 1.83, dose 230 mg, read-out: Concentration, 48 hours", "value": 19.4, "unit": "µM"},
      {"measurement": "concentration at 48 h", "setting": "[4]; all 13 treatments in three patients, PBPK-calculated dose, two-thirds / one-third split, read-out: 48-hour plasma concentrations", "value": "> 10", "unit": "µM"},
      {"measurement": "Alpha half-life", "setting": "[5]; [16]", "value": "5.5 ± 1.7", "unit": "h"},
      {"measurement": "Beta half-life", "setting": "[5]; [16]", "value": "98.4 ± 52.8", "unit": "h"},
      {"measurement": "Gamma half-life", "setting": "[5]; [16]", "value": "1870 ± 1100", "unit": "h"},
      {"measurement": "Total body clearance", "setting": "[5]; [16]", "value": "0.01 ± 0.004", "unit": "l/hr/m^2"},
      {"measurement": "Cumulative AUC", "setting": "[5]; high dose suramin, total dose >2,000 mg per m^2 per 3-week interval, calculated as 200 μg/ml x 3 weeks from the reference", "value": "101* mg-hr/ml"},
      {"measurement": "effect on cell cycle", "setting": "cell cycle", "value": "induce cell cycle arrest"},
      {"measurement": "concentrations of suramin that overcome FGF-mediated resistance to chemotherapy", "setting": "[6]", "value": "less than 50 μM"},
      {"measurement": "k^typ (elimination rate constant), Estimate", "setting": "[7]; Female", "value": 0.0022, "unit": "h⁻¹"},
      {"measurement": "k^typ (elimination rate constant), Estimate", "setting": "[7]; Male", "value": 0.0026, "unit": "h⁻¹"},
      {"measurement": "θ1 (effect of BSA on CL^typ), Estimate", "setting": "[7]; [17]", "value": 26.2, "unit": "mL/h * m^2"},
      {"measurement": "θ5 (effect of BSA^2 on V^typ), Estimate", "setting": "[7]; [17]", "value": 5.13, "unit": "L/m^4"}
    ]}
  ]
}
